Values after ≈ are worked out from the molar mass of the structure shown. Read-outs that look alike come from different tables or passages of the source. Ends that are not written are not given here. Peptide text beside a SMILES is read from it.
Experiments:
[1] = system: Micrococcus lutea CMCC28001; assay type: cell-based
Description: (§1) The minimum inhibitory concentrations (MIC) of the invention peptides were determined using methods described below:
(§2) The strain was recovered, inoculated into sloped medium, and grown overnight at 37° C. Typical clone selected were grown overnight at 37° C. in LB culture, diluted in the same medium to give concentrations of about 10^4-10^5 CFU/ml. The broth dilutions were set up in a 96-well microtiter plate by putting 100 μl of LB-S in every well. Added diluted peptide to every well (10 ul per well), cultured overnight at 37° C. The next day, the plates were scored for growth in the wells, and the MIC determined (In Yup Park et al.; FEBS Letters; 437 (1998) 258-262).

[2] = system: Staphylococcus aureaus CMCC26003; assay type: cell-based
Description: as §1, §2

[3] = system: Micrococcus lysoleikticus S1.634; assay type: cell-based
Description: as §1, §2

[4] = system: Escherichia coli ATCC8099; assay type: cell-based
Description: as §1, §2

[5] = system: Candida albicans ATCC10231; assay type: cell-based
Description: as §1, §2

[6] = system: Klebsiella pneumoniae CMCC46117; assay type: cell-based
Description: as §1, §2

[7] = system: Bacillus pumilus CMCC63202; assay type: cell-based
Description: as §1, §2

[8] = system: Saccharomyces cerevisiae ATCC9736; assay type: cell-based
Description: as §1, §2

[9] = system: Pseudomonas aeruginosa CMCC10104; assay type: cell-based
Description: as §1, §2

CMCC50094 = experiment: MIC assay, 96-well microtiter plate; assay type: cell-based; settings: B Subacute sclerosing panencephalitis CMCC50094 (G−)
Description: as §1, §2

Bacillus subtilis DB430 = experiment: MIC assay, 96-well microtiter plate; assay type: cell-based; settings: Bacillus subtilis DB430 (G+)
Description: as §1, §2

[10] = system: K562 (human chronic myeloid leukemia cell)
Description: (§3) To determine the inhibitory activity of the peptides against tumor cells, a MTT colorimetric assay was performed. Fifty percent inhibitory concentrations of the antimicrobial peptides against tumor cells and normal fibroblasts were determined. Tumor cell K562 (human chronic myeloid leukemia cell), Bcap-37 (human breast cancer cell), QGY-7703 (human hepatocellular carcinoma cell), LOVO colon cancer cell, and mouse NIH-3T3 fibroblast were selected. These cells were provided by the College of Life Sciences, Fudan University. Cells were grown in RPMI1-1640, containing 10% inactivated calf serum. Cells were transferred into the 96-well plate at 2*10^4 cells/well, and 150 μl was added in each well. After the 96-well plate were incubated overnight at 37, in 5% carbon dioxide, 20 μl diluted peptide solution was added to each well, then incubated for 3 days, 20 μl MTT solution was added to each well, and incubated at 37° C. for 4 hours, 40 μl, 002M HCl solution containing 20% SDS was added to each well to solve the purple crystal, and incubated overnight at 37° C. The absorbance at 570 nm was determined.

[11] = system: Bcap-37 (human breast cancer cell)
Description: as §3

[12] = system: QGY-7703 (human hepatocellular carcinoma cell)
Description: as §3

S. aureus CMCC26003 = assay type: in vivo, Kunming mouse; settings: for Inhibitory rate: S. aureus infected mice
Description: The infection model was Staphylococcus aureus infection in the Kunming mouse.
S. aureus CMCC26003 was cultured overnight, with moderate agitation, in Veal Infusion broth (Difco) and diluted in broth containing 5% hog gastric mucin (Difco). Male Kunming mice weighing approximately 20 grams were infected intraperitoneally with 10^6-10^7 viable cells. There were 3 mice in each treatment group. Antimicrobial peptide GK-1 was administered intravenously (in 0.1 ml 5% dextrose for injection), within 10 minutes of infection. Vancomycin was administered subcutaneously.

Description for LOVO colon cancer cell: as §3
Description for mouse NIH-3T3 fibroblast: as §3

Compound | MIC [1] [µg/mL] | MIC [2] [µg/mL] | MIC [3] [µg/mL] | MIC [4] [µg/mL] | MIC [5] [µg/mL] | MIC [6] [µg/mL] | MIC [7] [µg/mL] | MIC [8] [µg/mL] | MIC [9] [µg/mL] | MIC (CMCC50094) [µg/mL] | MIC (Bacillus subtilis DB430) [µg/mL] | inhibitory activity against tumor cells (IC50) (LOVO colon cancer cell) [µg/mL] | inhibitory activity against tumor cells (IC50) [10] [µg/mL] | inhibitory activity against tumor cells (IC50) [11] [µg/mL] | IC50 against normal fibroblasts (mouse NIH-3T3 fibroblast) [µg/mL] | inhibitory activity against tumor cells (IC50) [12] [µg/mL] | further results
RWKLFKKIEKVGRNVRDGLIKAGPAIAVIGQAKSL [cecropin A1, reference compound] | 30 | 16 | 50 | 20 | 50 | 16 | 50 | 50 | 18 | 12 | 12 |  |  |  |  |  | 
KWKLFKKIGIGRLLKRGLRKLLK [GK-1] | 2 | 0.4 | 1.0 | 1 | 8 | 2 | 0.5 | 14 | 10 | 4 | 4 | 35 | 45 | 52 | >100 | 38 | 
CC[C@H](C)[C@@H]1NC(=O)CNC(=O)[C@H]([C@@H](C)CC)NC(=O)[C@H](CCCCN)NC(=O)[C@H](CCCCN)NC(=O)[C@H](Cc2ccccc2)NC(=O)[C@H](CC(C)C)NC(=O)[C@H](CCCCN)NC(=O)[C@H](Cc2c[nH]c3ccccc23)NC(=O)[C@H](CCCCN)NC(=O)[C@H](CCCCN)NC(=O)[C@H](CC(C)C)NC(=O)[C@H](CC(C)C)NC(=O)[C@H](CCCCN)NC(=O)[C@H](CCCNC(=N)N)NC(=O)[C@H](CC(C)C)NC(=O)CNC(=O)[C@H](CCCNC(=N)N)NC(=O)[C@H](CCCCN)NC(=O)[C@H](CC(C)C)NC(=O)[C@H](CC(C)C)NC(=O)[C@H](CCCNC(=N)N)NC(=O)CNC1=O [GK-20] (cyclo(KWKLFKKIGIGRLLKRGLRKLLK); ring closure inferred) | 4 (≈ 1.44 µM) | 0.8 (≈ 0.288 µM) | 2 (≈ 0.721 µM) | 8 (≈ 2.88 µM) | 18 (≈ 6.49 µM) | 10 (≈ 3.6 µM) | 6 (≈ 2.16 µM) | 20 (≈ 7.21 µM) | 10 (≈ 3.6 µM) |  |  |  |  |  |  |  | 
RWRLFKRIGIGRLLKRGLR [GK-3] | 3 | 0.5 | 1.2 | 1.6 | 11 | 2 | 0.8 | 12 | 1.8 | 6 | 5 | 31 | 13 | 25 | >100 | 21 | 
KWKLFKKIGIGRLLRRLLRRLLR [GK-2] | 4 | 0.2 | 0.8 | 0.5 | 10 | 0.8 | 1 | 12 | 12 | 1 | 4 | 32 | 56 | 47 | >100 | 44 | 
RFKLFKKIPRLLRRGLRKVLK [GK-19] | 10 | 1.0 | 4 | 2 | 16 | 2 | 10 | 12 | 4 | 1 | 2 |  |  |  |  |  | 
CN[C@H](CC(C)C)C(=O)N[C@H]1C(=O)N[C@@H](CC(N)=O)C(=O)N[C@H]2C(=O)N[C@H]3C(=O)N[C@H](C(=O)N[C@H](C(=O)O)c4cc(O)cc(O)c4-c4cc3ccc4O)[C@H](O)c3ccc(c(Cl)c3)Oc3cc2cc(c3O[C@@H]2O[C@H](CO)[C@@H](O)[C@H](O)[C@H]2O[C@H]2C[C@](C)(N)[C@H](O)[C@H](C)O2)Oc2ccc(cc2Cl)[C@H]1O [Vancomycin] |  |  |  |  |  |  |  |  |  |  |  |  |  |  |  |  | Inhibitory rate (S. aureus CMCC26003; 0.5 mg/kg s.c.): 0%; Inhibitory rate (S. aureus CMCC26003; 1.0 mg/kg s.c.): 40%; Inhibitory rate (S. aureus CMCC26003; 2.0 mg/kg s.c.): 80%; Inhibitory rate (S. aureus CMCC26003; 4.0 mg/kg s.c.): 100%; Inhibitory rate (S. aureus CMCC26003; 8.0 mg/kg s.c.): 100%; Effectiveness against S. aureus infection (protection of infected mice) (S. aureus CMCC26003; dosage of 4.5 mg/kg): 100%

Reference: patent US7629438B2, “Group of synthetic antimicrobial peptides” (priority 2002, dated 2009)
